From patent US4935422A, “Acyloxypropanolamines” (E. I. Du Pont de Nemours and Company, priority 1988, dated 1990) come the findings set out here.

In the assay the target is β-adrenergic receptors (guinea pig right atria and guinea pig tracheal strips). The assay can be described thus: Beta-blocking activity in vitro: guinea pig right atria and tracheal strips, shift of isoproterenol concentration-response curves (pA2). Particulars: β-blockade of isoproterenol response, 60-minute incubation, 37 °C; pA2 (-log KB) by method of Furchgott; tissue (atria or trachea) not stated in Table 1. The protocol:
Several of the compounds of the present invention were tested for β-blocking activity in vitro using guinea pig right atria and guinea pig tracheal strips mounted in a tissue bath containing oxygenated (95% O2 -5% CO2) Krebs physiological salt solution at 37° C. Each tissue was suspended between a fixed glass rod and a Statham Universal Transducer connected to a Beckman recorder. Atria were allowed to beat spontaneously under a loading tension of approximately 0.5 gm. Intrinsic depressant or stimulant activity was determined for each compound by progressively increasing concentrations in the tissue baths at 60-minute intervals. Tissues were not washed between increments. The maximum concentration showing little or no cardiodepressant activity was chosen for blockade experiments. Changes in rate in response to isoproterenol, a standard β-receptor agonist, were measured in the absence and presence of test compounds. Spiral strips of guinea pig trachea were suspended under 5 gm resting tension and incubated with phentolamine, tropolone and cocaine. Active tension was generated by addition of carbachol (3.0×10^-7 M) and decreases in tension in response to isoproterenol were quantitated. Cumulative concentration-response curves were produced with isoproterenol both before and after 60-minute incubation of test compounds with atria and trachea. Compounds with β-blocking activity shifted concentration-response curves to the right. The blocking potency of test compounds was estimated by computing pA2 values (-log […]) by the method of Furchgott, the Pharmacological Differentiation of Adrenergic Receptors, Ann. N.Y. Acad. Sci., 139:553-570 (1967). […] The degree of cardioselectivity was estimated from the ratio, kβ trachea/Kβ atria (10^(pA.sbsp.2^atria-pA.sbsp.2^trachea)). A ratio greater than one indicates cardioselectivity. Test drugs were dissolved in distilled water and added to the bath (30 mL) in a volume of 10 or 100 μL. All of the test compounds are active β-blockers. [drawing 10]
A word on the pA2: it is the negative logarithm of the molar antagonist concentration that doubles the agonist concentration needed for the same response. For `CC(C)(C)NCC(O)COC(=O)C1CC1` (stereo not shown) [Compound 2], the pA2 came to 6.5.

On to `CC(C)(C)NCC(O)COC(=O)C(C)(C)C` (stereo not shown) [Compound 3], for which the pA2 came to 5.3.

Regarding `CC(C)(C)NCC(O)COC(=O)C1CCC1` (stereo not shown) [Compound 4], the pA2 worked out at 5.0.

As to `CC(C)C(=O)NCC(C)(C)NCC(O)COC(=O)C(C)(C)C` (stereo not shown) [Compound 5], the pA2 was found to be 6.5.

In the case of `CC(C)C(=O)NCC(C)(C)NCC(O)COC(=O)C1CCC1` (stereo not shown) [Compound 7], the pA2 is on record as 6.5.

For `CC(C)C(=O)NCC(C)(C)NCC(O)COC(=O)C1=CCCC1` (stereo not shown) [Compound 8], the pA2 amounted to 7.6.

In the case of `CC(C)C(=O)NCC(C)(C)NCC(O)COC(=O)C1CC=CCC1` (stereo not shown) [Compound 9], the pA2 was 6.9.

Consider `CC(C)(CNC(=O)N1CCCCC1)NCC(O)COC(=O)C1CC1` (stereo not shown) [Compound 10], for which the pA2 is on record as 8.1.

As for `CC(C)(CNC(=O)N1CCOCC1)NCC(O)COC(=O)C1CC1` (stereo not shown) [Compound 11], the pA2 was determined as 8.0.

With `CC(C)(CNC(=O)C1CCOC1)NCC(O)COC(=O)/C=C/c1ccccc1` (stereo not shown) [Compound 12], the pA2 is given as 7.3.
